Measured values reported in ChEMBL document CHEMBL4007504, “Docking, synthesis and antimalarial activity of novel 4-anilinoquinoline derivatives” (Bioorg Med Chem Lett, 2017).

Key:
Plasmodium falciparum = test: Antimalarial activity against chloroquine-resistant Plasmodium falciparum W2 infected in human erythrocytes assessed as parasite growth inhibition after 48 hrs by YOYO1 probe-based flow cytometric method; assay type: functional, cell-based; conditions: W2, 48 h
Ferriprotoporphyrin IX = test: Binding affinity to haematin assessed as inhibition of NP40-mediated beta-haematin formation after 4 hrs by pyridine-ferrochrome method
Plasmodium berghei = test: Antimalarial activity against chloroquine-sensitive Plasmodium berghei infected in Swiss albino mouse assessed as chemosuppression at 200 mg/kg, po qd administered for 4 days by peter's test relative to control; assay type: functional; conditions: 96 h
Mus musculus = test: Toxicity in Swiss albino mouse at 2000 mg/kg, po; assay type: organism-based; conditions: in vivo

SMILES | IC50 (Plasmodium falciparum) [nM] | IC50 (Ferriprotoporphyrin IX) [nM] | inhibition in vivo at 200 mg/kg (Plasmodium berghei) [%] | Activity (Mus musculus)
CN(C)c1nc(Cl)nc(Nc2ccc(Nc3ccnc4cc(Cl)ccc34)cc2)n1 | 380 | 29700 | 95.2 | Non-Toxic
CCN(CC)c1nc(Cl)nc(Nc2ccc(Nc3ccnc4cc(Cl)ccc34)cc2)n1 | 268 | 21600 | 95.5 | Non-Toxic
CCCN(CCC)c1nc(Cl)nc(Nc2ccc(Nc3ccnc4cc(Cl)ccc34)cc2)n1 | 8 | 18600 | 91.5 | Non-Toxic
Clc1ccc2c(Nc3ccc(Nc4nc(Cl)nc(N(c5ccccc5)c5ccccc5)n4)cc3)ccnc2c1 | 255 | 24900 | 97.4 | Non-Toxic
Clc1ccc2c(Nc3ccc(Nc4nc(Cl)nc(N5CCNCC5)n4)cc3)ccnc2c1 | 167 | 23700 | 94.8 | Non-Toxic
Clc1ccc2c(Nc3ccc(Nc4nc(Cl)nc(NCc5ccccc5)n4)cc3)ccnc2c1 | 123 | 21800 | 97 | Non-Toxic
O=[N+]([O-])c1ccc(Nc2nc(Cl)nc(Nc3ccc(Nc4ccnc5cc(Cl)ccc45)cc3)n2)cc1 | 145 | 23000 | 97.4 | Non-Toxic
Clc1ccc2c(Nc3ccc(Nc4nc(Cl)nc(N5CCCC5)n4)cc3)ccnc2c1 | 119 | 28100 | 97 | Non-Toxic
COc1ccccc1Nc1nc(Cl)nc(Nc2ccc(Nc3ccnc4cc(Cl)ccc34)cc2)n1 | 145 | 21000 | 94.8 | Non-Toxic
Nc1ccc(Nc2ccnc3cc(Cl)ccc23)cc1 | 807 | 32500 | 85.9 | Non-Toxic
CC(C)N(c1nc(Cl)nc(Nc2ccc(Nc3ccnc4cc(Cl)ccc34)cc2)n1)C(C)C | 902 | > 500000 | 95.5 | Non-Toxic
Clc1ccc2c(Nc3ccc(Nc4nc(Cl)nc(N5CCCCC5)n4)cc3)ccnc2c1 | 118 | 20600 | 94.1 | Non-Toxic
CCN(c1ccccc1)c1nc(Cl)nc(Nc2ccc(Nc3ccnc4cc(Cl)ccc34)cc2)n1 | 220 | 29200 | 97 | Non-Toxic
Clc1ccc2c(Nc3ccc(Nc4nc(Cl)nc(N5CCOCC5)n4)cc3)ccnc2c1 | 138 | 21100 | 97 | Non-Toxic
CN(c1ccccc1)c1nc(Cl)nc(Nc2ccc(Nc3ccnc4cc(Cl)ccc34)cc2)n1 | 269 | 23700 | 91.1 | Non-Toxic
C[C@@H]1CC[C@H]2[C@@H](C)C(=O)O[C@@H]3O[C@@]4(C)CC[C@@H]1[C@]32OO4 [ARTEMISININ] | 15 | – | – | –
CCN(CC)CCCC(C)Nc1ccnc2cc(Cl)ccc12 (stereo not drawn) [CHLOROQUINE] | – | 27200 | 83 | –
